In ChEMBL document CHEMBL4017483, “Potent and selective oxytocin receptor agonists without disulfide bridges” (Bioorg Med Chem Lett, 2017):
Numbered stars: 1 amine (or outer) side, 2 acyl side, 3 side chain; on linkers, the order of the positions; unused ones are H or OH. Bridge positions count the residues as written; N and C are the ends. Square brackets hold non-standard residues; d marks the D form. Peptide text beside a SMILES is read from it. Hyp = O=C(O)[C@@H]1C[C@@H](O)CN1; tBuAla = CC(C)(C)C[C@H](N)C(=O)O; X1 = O=C(CCC[*:2])[*:1]; Mpa = O=C(O)CCS

Key:
[1] = target: T1, Oxytocin receptor (Homo sapiens, UniProt P30559); test: Agonist activity at human OTR expressed in CHO cells assessed as calcium mobilization measured after 30 mins by Fluo-4-AM dye based FLIPR assay; assay type: functional, cell-based
T1 sequence (P30559 whole entry): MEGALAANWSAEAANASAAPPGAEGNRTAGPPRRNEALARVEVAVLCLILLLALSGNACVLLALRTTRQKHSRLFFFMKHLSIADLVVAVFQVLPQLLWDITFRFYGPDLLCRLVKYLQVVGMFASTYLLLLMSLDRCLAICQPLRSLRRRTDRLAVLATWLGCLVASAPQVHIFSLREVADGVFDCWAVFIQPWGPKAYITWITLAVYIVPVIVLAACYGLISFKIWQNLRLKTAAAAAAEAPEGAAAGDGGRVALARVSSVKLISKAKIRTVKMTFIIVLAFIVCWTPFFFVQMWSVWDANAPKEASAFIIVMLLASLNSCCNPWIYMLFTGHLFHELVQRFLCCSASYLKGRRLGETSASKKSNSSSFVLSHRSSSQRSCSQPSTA

[2] = species: Homo sapiens; test: Selectivity ratio of EC50 for human V1a receptor to EC50 for human OTR
[3] = species: Homo sapiens; test: Selectivity ratio of EC50 for human V1b receptor to EC50 for human OTR
[4] = target: Vasopressin V1a receptor (Homo sapiens, UniProt P37288); test: Agonist activity at human V1a receptor expressed in CHO cells assessed as calcium mobilization measured after 30 mins by Fluo-4-AM dye based FLIPR assay; assay type: cell-based
Sequence of Vasopressin V1a receptor (P37288 whole entry): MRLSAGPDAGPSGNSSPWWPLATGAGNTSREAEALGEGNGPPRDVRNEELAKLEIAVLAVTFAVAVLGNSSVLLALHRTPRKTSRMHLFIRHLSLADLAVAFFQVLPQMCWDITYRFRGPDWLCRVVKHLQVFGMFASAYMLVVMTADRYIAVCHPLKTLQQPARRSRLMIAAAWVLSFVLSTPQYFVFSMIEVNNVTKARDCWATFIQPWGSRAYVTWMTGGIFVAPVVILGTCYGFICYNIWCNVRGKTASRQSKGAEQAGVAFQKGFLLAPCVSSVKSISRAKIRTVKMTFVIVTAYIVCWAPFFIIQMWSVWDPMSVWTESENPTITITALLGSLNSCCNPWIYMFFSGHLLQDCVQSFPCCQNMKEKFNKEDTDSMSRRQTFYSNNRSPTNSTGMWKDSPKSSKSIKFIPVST

[5] = target: T2, Vasopressin V1b receptor (Homo sapiens, UniProt P47901); test: Agonist activity at human V1b receptor expressed in CHO cells assessed as calcium mobilization measured after 30 mins by Fluo-4-AM dye based FLIPR assay; assay type: cell-based
T2 sequence (P47901 whole entry): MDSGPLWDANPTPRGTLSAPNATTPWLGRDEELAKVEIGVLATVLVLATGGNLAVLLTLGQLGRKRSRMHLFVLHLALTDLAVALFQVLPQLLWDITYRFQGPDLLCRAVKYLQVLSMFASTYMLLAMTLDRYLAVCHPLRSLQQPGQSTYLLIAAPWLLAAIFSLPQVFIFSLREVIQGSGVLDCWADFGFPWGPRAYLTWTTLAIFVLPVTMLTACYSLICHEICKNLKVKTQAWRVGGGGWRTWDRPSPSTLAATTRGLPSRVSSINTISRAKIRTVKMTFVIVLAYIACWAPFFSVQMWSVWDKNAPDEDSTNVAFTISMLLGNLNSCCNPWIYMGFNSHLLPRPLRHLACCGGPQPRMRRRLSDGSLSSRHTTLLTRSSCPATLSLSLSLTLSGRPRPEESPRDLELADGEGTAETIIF

| Compound | EC50 [1] [nM] | Ratio EC50 [2] | Ratio EC50 [3] | EC50 [4] [nM] | EC50 [5] [nM] |
| --- | --- | --- | --- | --- | --- |
| CCCCCC[C@H](NC(=O)[C@@H]1CCCN1C(=O)[C@@H]1CSSCCC(=O)N[C@@H](Cc2ccc(O)cc2)C(=O)N[C@@H]([C@@H](C)CC)C(=O)N[C@@H](CCC(N)=O)C(=O)N[C@@H](CC(N)=O)C(=O)N1)C(=O)NCC(N)=O | 0.027 | 120 | 20 | 3.1 | 0.55 |
| CC[C@H](C)[C@@H]1NC(=O)[C@H](Cc2ccc(O)cc2)NC(=O)CCSSC[C@@H](C(=O)N2C[C@@H](O)C[C@H]2C(=O)N[C@@H](CC(C)C)C(=O)NCC(N)=O)NC(=O)[C@H](CC(N)=O)NC(=O)[C@H](CCC(N)=O)NC1=O | 0.007 | > 10000 | 1200 | > 100 | 8.2 |
| CC[C@H](C)[C@@H]1NC(=O)[C@H](Cc2ccc(O)cc2)NC(=O)CCSSC[C@@H](C(=O)N2CCC[C@H]2C(=O)N[C@@H](CC(C)(C)C)C(=O)NCC(N)=O)NC(=O)[C@H](CC(N)=O)NC(=O)[C@H](CCC(N)=O)NC1=O | 0.0086 | > 10000 | > 10000 | > 100 | > 100 |
| CC[C@H](C)[C@@H]1NC(=O)[C@H](Cc2ccc(O)cc2)NC(=O)CCSSC[C@@H](C(=O)N2CCC[C@H]2C(=O)N[C@@H](CC(C)C)C(=O)N(C)CC(N)=O)NC(=O)[C@H](CC(N)=O)NC(=O)[C@H](CCC(N)=O)NC1=O | 0.12 | > 100 | > 100 | > 100 | > 100 |
| CCCC[C@H](NC(=O)[C@@H]1CCCN1C(=O)[C@@H]1CSSCCC(=O)N[C@@H](Cc2ccc(O)cc2)C(=O)N[C@@H]([C@@H](C)CC)C(=O)N[C@@H](CCC(N)=O)C(=O)N[C@@H](CC(N)=O)C(=O)N1)C(=O)NCC(N)=O | 0.015 | 290 | 33 | 4.4 | 0.5 |
| CC[C@H](C)[C@@H]1NC(=O)[C@H](Cc2ccc(O)cc2)NC(=O)CCSSC[C@@H](C(=O)N2CCCCC2C(=O)N[C@@H](CC(C)C)C(=O)NCC(N)=O)NC(=O)[C@H](CC(N)=O)NC(=O)[C@H](CCC(N)=O)NC1=O (stereo partly drawn) | 0.013 | > 1000 | 310 | > 100 | 4 |
| CC[C@H](C)[C@@H]1NC(=O)[C@H](Cc2ccc(O)cc2)NC(=O)CCSSC[C@@H](C(=O)N2C[C@H](O)C[C@H]2C(=O)N[C@@H](CC(C)C)C(=O)NCC(N)=O)NC(=O)[C@H](CC(N)=O)NC(=O)[C@H](CCC(N)=O)NC1=O | 0.0053 | > 10000 | > 10000 | > 100 | > 100 |
| CCCCCCC(NC(=O)[C@@H]1CCCN1C(=O)[C@@H]1CSSCCC(=O)N[C@@H](Cc2ccc(O)cc2)C(=O)N[C@@H]([C@@H](C)CC)C(=O)N[C@@H](CCC(N)=O)C(=O)N[C@@H](CC(N)=O)C(=O)N1)C(=O)NCC(N)=O (stereo partly drawn) | 0.027 | 120 | 20 | 3.1 | 0.55 |
| CC[C@H](C)[C@@H]1NC(=O)[C@H](Cc2ccc(O)cc2)NC(=O)CCSSC[C@@H](C(=O)N2CCC[C@H]2C(=O)N[C@@H](CC2CCCCC2)C(=O)NCC(N)=O)NC(=O)[C@H](CC(N)=O)NC(=O)[C@H](CCC(N)=O)NC1=O | 0.01 | > 1000 | 140 | > 100 | 1.4 |
| S | 0.12 | > 100 | > 100 | > 100 | > 100 |
| CC[C@H](C)[C@@H]1NC(=O)[C@H](Cc2ccc(O)cc2)NC(=O)CCSSC[C@@H](C(=O)N2CCC[C@H]2C(=O)N[C@@H](CC(C)C)C(=O)NNC(N)=O)NC(=O)[C@H](CC(N)=O)NC(=O)[C@H](CCC(N)=O)NC1=O | 0.0075 | 9300 | 970 | 70 | 7.3 |
| CC[C@H](C)[C@@H]1NC(=O)[C@H](Cc2ccc(O)cc2)NC(=O)CCSSC[C@@H](C(=O)N2CCC[C@H]2C(=O)N[C@@H](CC(C)C)C(=O)NCC(N)=O)NC(=O)[C@H](CC(N)=O)NC(=O)[C@H](CCC(N)=O)NC1=O |  |  |  |  | 3.2 |
| CC[C@H](C)[C@@H]1NC(=O)[C@H](Cc2ccc(O)cc2)NC(=O)CCCSC[C@@H](C(=O)N2CCC[C@H]2C(=O)N[C@@H](CC(C)C)C(=O)NCC(N)=O)NC(=O)[C@H](CC(N)=O)NC(=O)[C@H](CCC(N)=O)NC1=O (YIQNCPLG-NH2; linker N-5 via X1) | 0.0067 | 6700 | 970 | 45 | 6.5 |
| CC[C@H](C)[C@@H]1NC(=O)[C@H](Cc2ccc(O)cc2)NC(=O)CCCSC[C@@H](C(=O)N2CCC[C@H]2C(=O)N[C@@H](CC(C)(C)C)C(=O)NCC(N)=O)NC(=O)[C@H](CC(N)=O)NC(=O)[C@H](CCC(N)=O)NC1=O (YIQNCP[tBuAla]G-NH2; linker N-5 via X1) | 0.0065 | > 10000 | > 10000 | > 100 | > 100 |
| CC[C@H](C)[C@@H]1NC(=O)[C@H](Cc2ccc(O)cc2)NC(=O)CCCSC[C@@H](C(=O)N2C[C@H](O)C[C@H]2C(=O)N[C@@H](CC(C)C)C(=O)NCC(N)=O)NC(=O)[C@H](CC(N)=O)NC(=O)[C@H](CCC(N)=O)NC1=O (YIQNC[Hyp]LG-NH2; linker N-5 via X1) | 0.0055 | > 10000 | > 10000 | > 100 | > 100 |
| CC[C@H](C)[C@@H]1NC(=O)[C@H](C)NC(=O)CCSSC[C@@H](C(=O)N2CCC[C@H]2C(=O)N[C@@H](CC(C)C)C(=O)NCC(N)=O)NC(=O)[C@H](CC(N)=O)NC(=O)[C@H](CCC(N)=O)NC1=O ([Mpa]AIQNCPLG-NH2; disulfide 1-6) | > 100 |  |  | > 100 | > 100 |
| CC[C@H](C)[C@@H]1NC(=O)[C@H](CCC(=O)O)NC(=O)CCSSC[C@@H](C(=O)N2CCC[C@H]2C(=O)N[C@@H](CC(C)C)C(=O)NCC(N)=O)NC(=O)[C@H](CC(N)=O)NC(=O)[C@H](CCC(N)=O)NC1=O ([Mpa]EIQNCPLG-NH2; disulfide 1-6) | > 100 |  |  | > 100 | > 100 |
| CC[C@H](C)[C@@H]1NC(=O)[C@H](CCCNC(=N)N)NC(=O)CCSSC[C@@H](C(=O)N2CCC[C@H]2C(=O)N[C@@H](CC(C)C)C(=O)NCC(N)=O)NC(=O)[C@H](CC(N)=O)NC(=O)[C@H](CCC(N)=O)NC1=O ([Mpa]RIQNCPLG-NH2; disulfide 1-6) | > 100 |  |  | > 100 | > 100 |
| CC[C@H](C)[C@@H]1NC(=O)[C@H](CO)NC(=O)CCSSC[C@@H](C(=O)N2CCC[C@H]2C(=O)N[C@@H](CC(C)C)C(=O)NCC(N)=O)NC(=O)[C@H](CC(N)=O)NC(=O)[C@H](CCC(N)=O)NC1=O ([Mpa]SIQNCPLG-NH2; disulfide 1-6) | > 100 |  |  | > 100 | > 100 |
| CC(C)C[C@H](NC(=O)[C@@H]1CCCN1C(=O)[C@@H]1CSSCCC(=O)N[C@@H](Cc2ccc(O)cc2)C(=O)N[C@@H](CCC(=O)O)C(=O)N[C@@H](CCC(N)=O)C(=O)N[C@@H](CC(N)=O)C(=O)N1)C(=O)NCC(N)=O ([Mpa]YEQNCPLG-NH2; disulfide 1-6) | > 100 |  |  | > 100 | > 100 |
| CC[C@H](C)[C@@H]1NC(=O)[C@H](Cc2ccc(O)cc2)NC(=O)CCSSC[C@@H](C(=O)N2CCC[C@H]2C(=O)N[C@@H](CC(C)C)C(=O)NCC(N)=O)NC(=O)[C@H](Cc2ccccc2)NC(=O)[C@H](CCC(N)=O)NC1=O ([Mpa]YIQFCPLG-NH2; disulfide 1-6) | > 100 |  |  | > 100 | > 100 |
| CC[C@H](C)[C@@H]1NC(=O)[C@H](Cc2ccc(O)cc2)NC(=O)CCSSC[C@@H](C(=O)N2CCC[C@H]2C(=O)N[C@@H](CC(C)C)C(=O)NCC(N)=O)NC(=O)[C@H](CC(C)C)NC(=O)[C@H](CCC(N)=O)NC1=O ([Mpa]YIQLCPLG-NH2; disulfide 1-6) | > 100 |  |  | > 100 | > 100 |
| CC[C@H](C)[C@@H]1NC(=O)[C@H](Cc2ccc(O)cc2)NC(=O)CCSSC[C@@H](C(=O)N2CCC[C@H]2C(=O)N[C@@H](CC(C)C)C(=O)NCC(N)=O)NC(=O)[C@H](CCCNC(=N)N)NC(=O)[C@H](CCC(N)=O)NC1=O ([Mpa]YIQRCPLG-NH2; disulfide 1-6) | > 100 |  |  | > 100 | > 100 |
| CC(C)C[C@H](NC(=O)[C@@H]1CCCN1C(=O)[C@@H]1CSSCCC(=O)N[C@@H](Cc2ccc(O)cc2)C(=O)N[C@@H](CCCNC(=N)N)C(=O)N[C@@H](CCC(N)=O)C(=O)N[C@@H](CC(N)=O)C(=O)N1)C(=O)NCC(N)=O ([Mpa]YRQNCPLG-NH2; disulfide 1-6) | > 100 |  |  | > 100 | > 100 |
